From US20240382425A1 (BS BIOTECHNA SPOLKA Z OGRANICZONA ODPOWIEDZIALNOSCIA, priority 2021, published 2024)
In brackets after ≈: the same amount, converted by molar mass.

What was measured:
[1] = test system: MERS and SARS coronaviruses; conditions: lowest among over 290 drugs tested; cited from earlier work
[2] = Solubility of the deprotonated form of emetine in water; type: physicochemical
Procedure: The total volume of titrant utilised was 1.5 mL. The precipitate was centrifuged at 6000 RPM for 20 minutes and separated from the solution. […] The precipitate was dried in a vacuum dryer at 30° C., 100 mbar pressure for 5 h and used in the next synthetic steps.

For `CC[C@H]1CN2CCc3cc(OC)c(OC)cc3[C@@H]2C[C@@H]1C[C@H]1NCCc2cc(OC)c(OC)cc21` [emetine], the EC50 [1] is given as < 20 nM and the solubility [2] is given as 1790 µg/mL (≈ 3.72 mM).
